Patent publication US7319109B2, “Farnesoid X receptor agonists” (Smith Kline Beecham Corporation, priority 2002, dated 2008)

These compounds were tested against T1, Human FXRα Ligand Binding Domain (FXRα LBD) (Homo sapiens, UniProt Q96RI1) (assay: FXR Affinity Binding Assay: ligand mediated cofactor peptide (SRC-1 LCD2, 676-700) interaction, time resolved fluorescence). Conditions: FXRα LBD-APC / europium labeled SRC-1 peptide, TRF signal, at least 2 hours at room temperature; read-out: Activity (pEC50) (converted).
T1 construct: polyhistidine (N); made in house; host or cells: E. coli BL21 (DE3), pRSET-A vector
T1 sequence (Q96RI1 222-472 isoform Q96RI1-2): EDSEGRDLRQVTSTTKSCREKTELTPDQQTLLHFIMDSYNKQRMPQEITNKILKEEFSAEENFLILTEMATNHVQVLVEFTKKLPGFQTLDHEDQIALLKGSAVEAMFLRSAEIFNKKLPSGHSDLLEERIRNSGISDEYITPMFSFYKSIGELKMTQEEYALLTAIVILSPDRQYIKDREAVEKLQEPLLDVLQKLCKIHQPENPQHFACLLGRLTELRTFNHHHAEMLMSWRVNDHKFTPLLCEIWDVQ
Method: Determination of a ligand mediated cofactor peptide interaction to quantify ligand binding to the nuclear receptor Farnasoid X Receptor (FXR). The method measures the ability of putative ligands to modulate the interaction between the purified bacterial expressed FXRα (LBD) and a synthetic biotinylated peptide based on residues 676-700 of SRC-1(LCD2, 676-700). […] Detection of the associated complex is measured by time resolved fluorescence (TRF). The purified LBD of FXR is labeled with biotin then mixed with stoichiometric amounts of APC labeled streptavidin (Molecular Probes). The biotinylated peptide is then mixed with a ½ stoichiometric amount of europium labeled streptavidin (Wallac Inc). Each is then blocked with a 5 fold excess of biotin and allowed to equilibrate for 15 min. Equimolar amounts of receptor and peptide are mixed together and allowed to equilibrate for at least 30 min prior to the addition to either a variable or constant concentrations of the sample for which the affinity is to be determined. After equilibration, the time-resolved fluorescent signal is quantitated using a fluorescent plate reader. The affinity of the test compound is estimated from a plot of fluorescence versus concentration of test compound added.
Ligands that promote the complex formation induce a concentration-dependent increase in time-resolved fluorescent signal.
Human FXRα Ligand Binding Domain (FXRα LBD) was expressed in E.coli strain BL21 (DE3) as an amino-terminal polyhistidine tagged fusion protein. Expression was under the control of an IPTG inducible T7 promoter. DNA encoding this recombinant protein was subcloned into the pRSET-A expression vector (Invitrogen). The coding sequence of Human FXRα LBD was derived from Genbank accession number U 68233 (amino acids 222 to 472).
Routinely, 30-40 g cell paste (equivalent to 2-3 liters of the fermentation batch) was resuspended in 200-250 mL TBS, pH 7.2 (25mM Tris, 150 mM NaCl). Cells were lysed by passing 3 times through a French Press and cell debris was removed by centrifugation (30 minutes, 20,000 g, 4° C.). The cleared supernatant was filtered through course pre-filters, and TBS, pH 7.2, containing 500 mM imidazole was added to obtain a final imidazole concentration of 50 mM. This lysate was loaded onto a column (6×8 cm) packed with Sepharose [Ni^++ charged]Chelation resin (Pharmacia) and pre-equilibrated with TBS pH 7.21 50 mM imidazole. After washing to baseline absorbance with equilibration buffer, the column was washed with one column volume of TBS pH 7.2 containing 90 mM imidazole. FXRαLBD was eluted directly with 365 mM imidazole. Column fractions were pooled and dialyzed against TBS, pH 7.2, containing 0.5 mM EDTA and 5 mM DTT. The dialyzed protein sample was concentrated using Centri-prep 10 K (Amicon) and subjected to size exclusion, using a column (3×90 cm) packed with Sepharose S-75 resin (Pharmacia) pre-equilibrated with TBS, pH 7.2, containing 0.5 mM EDTA and 5 mM DTT.
Purified FXRα LBD was desalted/buffer exchanged using PD-10 gel filtration columns into PBS [100 mM NaPhosphate, pH 7.2, 150 mM NaCl]. FXRα LBD was diluted to approximately 10 μM in PBS and five-fold molar excess of NHS-LC-Biotin (Pierce) was added in a minimal volume of PBS. This solution was incubated with gentle mixing for 30 minutes at room temperature. The biotinylation modification reaction was stopped by the addition of 2000× molar excess of Tris-HCl, pH 8. The modified FXRα LBD was dialyzed against 4 buffer changes, each of at least 50 volumes, PBS containing 5 mM DTT, 2 mM EDTA and 2% sucrose.

First: Cc1cc(OCc2c(-c3c(Cl)cccc3Cl)noc2C(C)C)ccc1N(C)Cc1ccc(-c2csnn2)cc1 [Example 8, N-(4-{[3-(2,6-Dichlorophenyl)-5-isopropyl-4-isoxazolyl]methoxy}-2-methylphenyl)-N-methyl-N-[4-(1,2,3-thiadiazol-4-yl)benzyl]amine]
Second: Cc1cc(OCc2c(-c3c(Cl)cccc3Cl)noc2C(C)C)ccc1N(C)Cc1ccc(CO)cc1 [Example 12, {4-[(4-{[3-(2,6-Dichlorophenyl)-5-isopropyl-4-isoxazolyl]methoxy}-2-dimethylanilino)methyl]phenyl}methanol]
The EC50 of the first is higher: 102 to 1000 nM for the first, < 100 nM for the second.

`Cc1cc(OCc2c(-c3c(Cl)cccc3Cl)noc2C(C)C)ccc1NC(=O)c1ccc(C(=O)O)cc1` [Example 27, 4-[(4-{[3-(2,6-Dichlorophenyl)-5-isopropyl-4-isoxazolyl]methoxy}-2-methylanilino)carbonyl]benzoic acid] and `CC(C)c1onc(-c2c(Cl)cccc2Cl)c1COc1ccc(NC(=O)c2ccc(C(=O)O)cc2)c(Cl)c1` [Example 23, 4-{[(2-Chloro-4-{[3-(2,6-dichlorophenyl)-5-isopropylisoxazol-4-yl]methoxy}phenyl)amino]carbonyl}benzoic acid] fall in the same range of EC50: 102 to 1000 nM for the first, 102 to 1000 nM for the second.

`CCN(c1ccc(OCc2c(-c3c(Cl)cccc3Cl)noc2C(C)C)cc1)S(=O)(=O)c1ccc(C(=O)O)cc1` [Example 67, 4-{[(4-{[3-(2,6-Dichlorophenyl)-5-isopropylisoxazol-4-yl]methoxy}phenyl)(ethyl)amino]-sulfonyl}benzoic acid] and `CC(C)c1onc(-c2c(Cl)cccc2Cl)c1COc1ccc(N(C)S(=O)(=O)c2ccc(C(=O)O)cc2)cc1` [Example 64, 4-{[(4-{[3-(2,6-Dichlorophenyl)-5-isopropylisoxazol-4-yl]methoxy}phenyl)(methyl)-amino]sulfonyl}benzoic acid] fall in the same range of EC50: 102 to 1000 nM for the first, 102 to 1000 nM for the second.

First: Cc1cc(OCc2c(-c3c(Cl)cccc3Cl)noc2C(C)C)ccc1N(C)S(=O)(=O)c1ccc(C(=O)O)cc1 [Example 63, 4-{[(4-{[3-(2,6-Dichlorophenyl)-5-isopropylisoxazol-4-yl]methoxy}-2-methylphenyl)-(methyl)amino]sulfonyl}benzoic acid]
Second: CC(C)c1onc(-c2c(Cl)cccc2Cl)c1COc1ccc(N(C)S(=O)(=O)c2ccc(C(=O)O)cc2)c(Cl)c1 [Example 62, 4-{[(2-Chloro-4-{[3-(2,6-dichlorophenyl)-5-isopropylisoxazol-4-yl]methoxy}phenyl)-(methyl)amino]sulfonyl}benzoic acid]
The EC50 of the first is higher: 102 to 1000 nM for the first, < 100 nM for the second.

Compared with `COC(=O)c1ccc(S(=O)(=O)N(C)c2ccc(OCc3c(-c4c(Cl)cccc4Cl)noc3C(C)C)cc2)cc1` [Example 60, Methyl 4-{[(4-{[3-(2,6-dichlorophenyl)-5-isopropylisoxazol-4-yl]methoxy}phenyl)-(methyl)amino]sulfonyl}benzoate], `CCN(c1ccc(OCc2c(-c3c(Cl)cccc3Cl)noc2C(C)C)cc1C)S(=O)(=O)c1cccc(C(=O)OC)c1` [Example 44, Methyl 3-{[(4-{[3-(2,6-dichlorophenyl)-5-isopropylisoxazol-4-yl]methoxy}-2-methyl-phenyl)(ethyl)amino]sulfonyl}benzoate] is lower in EC50: 1020 to 10000 nM for the first, 102 to 1000 nM for the second.

`CCc1onc(Cc2c(Cl)cccc2Cl)c1COc1ccc(N(C)S(=O)(=O)c2cccc(C(=O)O)c2)c(C)c1` [Example 74, 3-{[(4-{[3-(2,6-Dichlorobenzyl)-5-ethylisoxazol-4-yl]methoxy}-2-methylphenyl)(methyl)-amino]sulfonyl}benzoic acid] and `CCc1onc(Cc2c(Cl)cccc2Cl)c1COc1ccc(N(C)Cc2cccc(C(=O)O)c2)c(C)c1` [Example 13, 3-[(4-{[3-(2,6-Dichlorobenzyl)-5-ethyl-4-isoxazolyl]methoxy}-2-dimethylanilino)methyl]benzoic acid] fall in the same range of EC50: 102 to 1000 nM for the first, 102 to 1000 nM for the second.

`Cc1cc(OCc2c(-c3ccccc3OC(F)(F)F)noc2C(C)C)ccc1NS(=O)(=O)c1cccc(C(=O)O)c1` [Example 69, 3-({[4-({5-Isopropyl-3-[2-(trifluoromethoxy)phenyl]isoxazol-4-yl}methoxy)-2-methyl-phenyl]amino}sulfonyl)benzoic acid] and `Cc1cc(OCc2c(-c3ccccc3OC(F)(F)F)noc2C(C)C)ccc1N(C)C(=O)c1cccc(C(=O)O)c1` [Example 32, 3-{[4-({5-Isopropyl-3-[2-(trifluoromethoxy)phenyl]-4-isoxazolyl}methoxy)-2-dimethylanilino]carbonyl}benzoic acid] fall in the same range of EC50: 102 to 1000 nM for the first, 102 to 1000 nM for the second.

First: CC(C)c1onc(-c2ccccc2OC(F)(F)F)c1COc1ccc(COc2cccc(C(=O)O)c2)c(Cl)c1 [Example 85, 3-{[2-Chloro-4-({5-isopropyl-3-[2-(trifluoromethoxy)phenyl]isoxazol-4-yl}methoxy)-benzyl]oxy}benzoic acid]
Second: CC(C)c1onc(-c2c(Cl)cccc2Cl)c1COc1ccc(COc2cccc(C(=O)O)c2)c(Cl)c1 [Example 77, 3-[(2-Chloro-4-{[3-(2,6-dichlorophenyl)-5-isopropylisoxazol-4-yl]methoxy}benzyl)oxy]-benzoic acid]
The EC50 of the first is higher: 102 to 1000 nM for the first, < 100 nM for the second.

First: CC(C)c1onc(-c2c(Cl)cccc2Cl)c1COc1ccc(NCc2cccc(C(=O)O)c2)c(Cl)c1 [Example 3, 3-{[(2-Chloro-4-{[3-(2,6-dichlorophenyl)-5-isopropylisoxazol-4-yl]methoxy}phenyl)amino]methyl}benzoic acid]
Second: Cc1cc(OCc2c(-c3c(Cl)cccc3Cl)noc2C(C)C)ccc1N(C)Cc1cccc(C(=O)O)c1 [Example 1, 3-{[(4-{[3-(2,6-Dichlorophenyl)-5-isopropylisoxazol-4-yl]methoxy}-2-methylphenyl)(methyl)amino]methyl}benzoic acid]
The EC50 of the first is higher: 102 to 1000 nM for the first, < 100 nM for the second.

First: Cc1cc(OCc2c(-c3c(Cl)cccc3Cl)noc2C(C)C)ccc1N(C)C(=O)c1cccc(C(=O)O)c1 [Example 29, 3-[(4-{[3-(2,6-Dichlorophenyl)-5-isopropyl-4-isoxazolyl]methoxy}-2-dimethylanilino)carbonyl]benzoic acid]
Second: Cc1cc(OCc2c(-c3c(Cl)cccc3Cl)noc2C(C)C)ccc1COc1cccc(C(=O)O)c1 [Example 79, 3-[(4-{[3-(2,6-Dichlorophenyl)-5-isopropylisoxazol-4-yl]methoxy}-2-methylbenzyl)oxy]-benzoic acid]
The EC50 of the first is higher: 102 to 1000 nM for the first, < 100 nM for the second.

`CC(C)c1onc(-c2c(Cl)cccc2Cl)c1COc1ccc(N(C)S(=O)(=O)c2cccc(C(=O)O)c2)c(Cl)c1` [Example 47, 3-{[(2-Chloro-4-{[3-(2,6-dichlorophenyl)-5-isopropylisoxazol-4-yl]methoxy}phenyl)-(methyl)amino]sulfonyl}benzoic acid] and `Cc1cc(OCc2c(-c3c(Cl)cccc3Cl)noc2C(C)C)ccc1N(C)Cc1cccc(CO)c1` [Example 11, {3-[(4-{[3-(2,6-Dichlorophenyl)-5-isopropyl-4-isoxazolyl]methoxy}-2-dimethylanilino)methyl]phenyl}methanol] cannot be ordered by EC50: < 100 nM for the first, < 100 nM for the second.

`Cc1cc(OCc2c(-c3c(Cl)cccc3Cl)noc2C(C)C)ccc1N(C)Cc1ccc(C(=O)O)o1` [Example 4, 5-[(4-{[3-(2,6-Dichlorophenyl)-5-isopropyl-4-isoxazolyl]methoxy}-2-dimethylanilino)methyl]-2-furoic acid] was tested, and the EC50 was 102 to 1000 nM.
